# Experimental data from patent publication US7279325B2, “Method for identifying antagonist compounds of the estrogen-related receptor 3 (ERR3) by using the x-ray structural coordinates of the ligand binding domain” (priority 2002, dated 2007).
# Substitutions are numbered along the chain they refer to.
# What was measured:
# [1] = tested on: mutant ERR3 LBDs (A272F, A272L, F435L, L345I, L345I-F435L, L345I-F435L-F450L)/GST-SRC-1 RID complex; assay: In vitro protein-protein interaction assay, mutant ERR3 LBDs with SRC-1 RID (native gels); type: biochemical, human
# Method: (§1) The His-tagged wt or mutant ERR3 LBDs, the GST-tagged SRC-1 RID, and GST were expressed in E. coli BL21(DE3) and partially purified by affinity chromatography using TALON (Clontech) or Glutathione Sepharose 4B (Pharmacia), respectively. […] After purification the proteins were dialyzed in assay buffer (20 mM Tris.HCl pH 8.0, 200 mM NaCl), and concentrated. For the protein-protein interaction assays […] (about 70 pmol) of His-tagged wt or mutant ERR3 LBD were mixed with […] (about 100 pmol) of GST-tagged SRC-1 RID or […] of GST and incubated on ice for 10 mins. […] Protein complexes were resolved on native polyacrylamide gradient gels (8%-25%) using the Phast System (Pharmacia).
# (§2) In vitro interaction assays with the RID (amino acids 617-764) of the coactivator SRC-1 has first been performed. Hexahistidine (His)-tagged ERR3, LBD and GST-tagged SRC-1 RID were partially purified by affinity chromatography, the proteins were mixed, and complex formation was monitored on native polyacrylamide gels. […] Complexes were separated on native polyacrylamide gradient gels.
# (§3) In addition, the ligand-binding pocket of ERR3 has been enlarged by either mutating F435 to leucine or by introducing a triple point mutation (L345I-F435L-F450L) which creates an “ERα-like” ligand-binding pocket.
# [2] = molecular target: T1, mutant ERR3 LBDs (A272F, A272L, F435L, L345I, L345I-F435L, L345I-F435L-F450L)/GST-SRC-1 RID complex (Homo sapiens, UniProt P62508, F435L); assay: as above; type: biochemical; conditions: 10^−4M 4-OHT
# T1 construct: wt or mutant ERR3 LBDs (residues 229 to 458, human and murine receptor are identical); made in house; host or cells: E. coli BL21(DE3)
# T1 sequence (P62508 229-458 F435L): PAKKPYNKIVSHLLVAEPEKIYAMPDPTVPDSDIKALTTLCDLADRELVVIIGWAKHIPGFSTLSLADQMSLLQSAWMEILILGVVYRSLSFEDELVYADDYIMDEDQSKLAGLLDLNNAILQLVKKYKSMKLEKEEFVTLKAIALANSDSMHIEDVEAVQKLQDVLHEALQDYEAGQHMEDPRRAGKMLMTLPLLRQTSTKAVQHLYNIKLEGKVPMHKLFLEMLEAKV
# Method: as §1, §2, §3
# [3] = molecular target: T2, Gal4-ERR3 (Homo sapiens, UniProt P62508); assay: Transient transfection luciferase reporter assay, Gal4-ERR3 in COS-1 cells; type: cell-based
# T2 construct: expressed in transfected cells; host or cells: COS-1
# T2 sequence (P62508 229-458): T1 sequence (P62508 229-458 F435L) with L207F
# Method: FIG. 6: represents the transcriptional activities of wild-type and mutant ERR3 fusion proteins in transient transfection assays, wherein (A) COS-1 cells were transfected in 24-well plates with 250 ng per well of Gal4(5×)-TATA-LUC reporter and 50 ng of wt or mutant pCMX-Gal4-ERR3 expression plasmid. […] (B) Experiments were performed as described in (A) using 250 ng per well of Gal4(3×)-TK-LUC reporter plasmid and 50 ng of wt or mutant Gal4-ERR3 expression plasmid. […] FIGS. A to C represent an average of three independent experiments. The activity of the Gal4 DBD control was set to one.
# COS-1 and BHK cells were cultured in DMEM supplemented with 5% FCS, penicillin, streptomycin, and glutamine. Neuro2A cells were cultured in EMEM supplemented with 10% FCS, penicillin, streptomycin, glutamine, and non-essential amino acids. Transient transfection assays were carried out in 24-well plates (0.5×10^5 cells per well for COS-1 and Neuro2A cells, 0.25×10^5 cells per well for BHK cells) using the standard calcium phosphate coprecipitation technique as described in Greiner et al. (Greiner et al., 1996). Cells were transfected with 250 ng of Gal4(5×)-TATA-LUC, Gal4(3×)-TK-LUC, or ERE(2×)-TK-LUC reporter plasmid and 50 ng per well of pCMX-Gal4-ERR3 or pCMX-ERR3 expression plasmid. The empty plasmids pCMX-Gal4 and pCMX served as control. […]
# [4] = molecular target: T3, ERR1 (Homo sapiens, UniProt P11474); conditions: Coward et al. (2001); cited from earlier work
# T3 sequence (P11474 1-423): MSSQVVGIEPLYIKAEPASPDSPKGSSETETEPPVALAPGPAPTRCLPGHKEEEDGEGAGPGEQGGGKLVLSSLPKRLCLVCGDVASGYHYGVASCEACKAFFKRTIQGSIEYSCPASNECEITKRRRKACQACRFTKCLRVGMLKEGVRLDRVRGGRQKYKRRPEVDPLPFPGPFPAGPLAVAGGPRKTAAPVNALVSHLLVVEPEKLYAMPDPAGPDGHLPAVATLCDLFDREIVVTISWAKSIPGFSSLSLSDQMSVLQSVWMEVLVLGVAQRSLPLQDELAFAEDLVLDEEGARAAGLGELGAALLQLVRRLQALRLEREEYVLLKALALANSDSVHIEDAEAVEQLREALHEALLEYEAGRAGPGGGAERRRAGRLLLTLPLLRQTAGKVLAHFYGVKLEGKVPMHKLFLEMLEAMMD
# [5] = molecular target: T4, ERR3 LBD/GST-SRC-1 RID complex (Homo sapiens, UniProt P62508); assay: In vitro protein-protein interaction assay, wt ERR3 LBD with SRC-1 RID (native gels); type: biochemical; conditions: 10^−4M ligand
# T4 construct: wt or mutant ERR3 LBDs (residues 229 to 458, human and murine receptor are identical); made in house; host or cells: E. coli BL21(DE3)
# T4 sequence (P62508 229-458): T1 sequence (P62508 229-458 F435L) with L207F
# Method: as §1, §2
substance,measurement,setting,value
4-hydroxytamoxifen [4-OHT],effect on the complex between GST-SRC-1 RID and the mutants A272F or A272L,"[1]; 10^−4M 4-OHT, ligand-binding cavity filled up",no effect
same,"antagonist effect on ERR3 LBD mutants that contain a F435L mutation (F435L, L345I-F435L, L345I-F435L-F450L) in vitro",[1]; 10^−4M ligand,still acts as an antagonist
same,effect on the ERR3(F435L)/GST-SRC-1 RID complex,[2],still disrupted
same,activity of Gal4-ERR3,"[3]; 10^−6M 4-OHT, Gal4(5×)-TATA-LUC reporter",blocked efficiently
same,repression of the constitutive activity of Gal4-ERR3 below basal levels of the TK promoter,[3]; Gal4(3×)-TK-LUC reporter,neither 4-OHT nor DES repress
same,binding to ERR1,[4],does not bind
same,conformational change of the ERR3 LBD (migration on native gels),[5]; native gels,retarded
same,effect on the complex between the wt ERR3 LBD and GST-SRC-1 RID,[5]; native polyacrylamide gradient gels,specifically disrupted
